Source: PMC4912613, “A broad analysis of resistance development in the malaria parasite” (Nature Communications, 2016)
Read-outs that look alike come from different tables or passages of the source.

Key:
[1] = test system: GNF156R (PfCARL L830V, S1076I and M81I, parent Dd2); experiment: Cross-resistance EC50 assay, GNF156R; format: cell-based; conditions: Plasmodium falciparum, SYBR green 72 hour assay, asynchronized parasites, 96-well or 1536-well format
Description: (§1) To evaluate potential overlapping activity against known antimalarial drug targets, we performed dose-response studies with each compound against our assembled set of drug-resistant lines and their corresponding parents, in an asexual blood stage proliferation assay (Table 1). Comparisons were made to the drug-sensitive strain 3D7 when a parent was unavailable (TM90C2A, W2 and Dd2). As laboratories conducted EC50 assays with different strains and protocols, all comparisons were made between assays from the same laboratory and under the same assay conditions. Compounds displaying >5-fold EC50 shifts relative to the parent or sensitive strain were flagged as having potentially non-novel targets. Average fold shifts per strain ranged from 0.82 to 2.34, with a median of 1.23 indicating there was not common resistance to any one resistant clone. No resistance patterns were observed when classifying the compounds based on chemical structure, but this was not surprising given the diversity of compounds chosen. On the other hand, given that these confirmed compounds were derived from larger unconfirmed hit lists to which some filtration criteria may have been applied (for example, elimination of obvious dihydrofolate reductase inhibitors[32]), some[10][11][12][13] pre-existing bias may exist in the set. […]
(§2) Alternatively, a SYBR Green-based proliferation approach was used for the 72-h assay, as previously described. Briefly, a culture of either synchronized or asynchronous parasitized RBCs (0.3% parasitemia and 4% haematocrit) in screening medium (identical to supplemented medium above except no serum was added) was exposed to serial drug dilutions. Plates were incubated at 37 °C and gassed with 93% N2, 4% CO2 and 3% O2 for 72 h. Following incubation, 10 × SYBR Green I (Invitrogen; supplied in 10,000 × concentration) in lysis buffer ([…], 5 mM EDTA, 0.16% Saponin wt per vol and 1.6% Triton X vol per vol) was added to the wells and the plates were incubated overnight at room temperature before plate reading. EC50 assays were repeated three times, taking the average EC50 value from each assay set, and removing any outliers using a single iteration of Grubbs' test, eliminating values with z-scores above the critical z-value (α=0.05). The raw EC50 values for synchronized parasites assayed in a 384-well format are listed in Supplementary Data 4. The raw EC50 values for asynchronous parasites assayed in a 96 or 1536-well format are listed in Supplementary Data 5.
(§3) EC50 values for each strain were compared with those of the corresponding parent strain to determine fold-shift changes and identify resistance. To minimize the cause variance between assays, all comparisons were conducted between strains assayed under identical conditions. A one-way ANOVA followed by a Dunnet's post-test was conducted in GraphPad Prism to identify significant changes between the parent and resistant strain.

[2] = test system: 3D7; experiment: Cross-resistance EC50 assay, 3D7 parent / sensitive strain; format: cell-based; conditions: Plasmodium falciparum
Description: Multidrug resistance alleles, including mutations in P. falciparum chloroquine resistance transporter (pfcrt) and P. falciparum multi-drug resistance transporter 1 (pfmdr1) are very common in field isolates. Therefore, we sought to assess the degree to which pre-existing resistance alleles would contribute to a loss of potency for this diverse collection of small molecule compounds. Fifteen clones derived from three main parent lines were chosen to maximize diversity in mutated pathways and genetic backgrounds, thus representing the variety of resistance seen in the field: 3D7 (ref. [23]), W2 (ref. [24]) or Dd2 (ref. [25]). The 3D7 line originates from the clone of a Netherlands clinical isolate strain[23][26] and is generally considered to be drug sensitive, though it does convey resistance to sulfadoxine. Conversely, W2 (ref. [24], [27]) and Dd2 (ref. [25]) are multi-drug-resistant lines originating from the Indochina III/CDC isolate, which contain point mutations in pfcrt as well as amplifications in pfmdr1 and GTP cyclohydrolase.
To evaluate potential overlapping activity against known antimalarial drug targets, we performed dose-response studies with each compound against our assembled set of drug-resistant lines and their corresponding parents, in an asexual blood stage proliferation assay (Table 1). Comparisons were made to the drug-sensitive strain 3D7 when a parent was unavailable (TM90C2A, W2 and Dd2). As laboratories conducted EC50 assays with different strains and protocols, all comparisons were made between assays from the same laboratory and under the same assay conditions. Compounds displaying >5-fold EC50 shifts relative to the parent or sensitive strain were flagged as having potentially non-novel targets. Average fold shifts per strain ranged from 0.82 to 2.34, with a median of 1.23 indicating there was not common resistance to any one resistant clone. No resistance patterns were observed when classifying the compounds based on chemical structure, but this was not surprising given the diversity of compounds chosen. On the other hand, given that these confirmed compounds were derived from larger unconfirmed hit lists to which some filtration criteria may have been applied (for example, elimination of obvious dihydrofolate reductase inhibitors[32]), some[10][11][12][13] pre-existing bias may exist in the set.
The 48-h assay was carried out in a 96-well format following standard methods using the ^3H-hypoxanthine incorporation assay. The raw EC50 values corresponding to this assay can be found in Supplementary Data 3. Briefly, this assay relies on the parasite incorporation of labelled hypoxanthine that is proportional to P. falciparum growth. A culture of parasitized RBCs (0.5% parasitemia with a percentage of ring stage higher than 70% of total parasitemia, 2.0% haematocrit) in RPMI-1640, […] and 5 μM hypoxanthine was exposed to drug serial dilutions. Plates were incubated for 24 h at 37 °C, 5% CO2, 5% O2 and 90% N2. After 24 h of incubation, ^3H-hypoxanthine was added and plates were incubated for an additional 24-h period. After that, parasites were harvested on a glass fibre filter using a TOMTEC Cell Harvester 96. Filters were dried and melt-on scintillator sheets were used to determine the incorporation of ^3H-hypoxanthine. Radioactivity was measured using a microbeta counter. Data were normalized using the incorporation of the positive (parasitized RBCs without drug) and negative (same culture with artesunate at 2 μM) controls. All assays were conducted in triplicate using three independently grown cultures, and EC50 values were determined using the XLfit add-in module for Excel (version 2.3.1) from Grafit (version 5.3.1.3), where parameter h is the assay hill slope, x is the compound concentration and y is the inhibition of growth effect. The XLfit equation is: […]
Alternatively, a SYBR Green-based proliferation approach was used for the 72-h assay, as previously described. […]

[3] = test system: CYTb-G131S (cytb G131S, parent Dd2); experiment: Cross-resistance EC50 assay, CYTb-G131S; format: cell-based, Plasmodium falciparum; conditions: for EC50: Plasmodium falciparum, SYBR green 72 hour assay, synchronized parasites, 384-well format
Description: as §1, §2, §3

[4] = test system: ATQ-R4 (cytb M133I and L144S, parent 3D7); experiment: Cross-resistance EC50 assay, ATQ-R4; format: cell-based, Plasmodium falciparum; conditions: for EC50: Plasmodium falciparum, 3D7, SYBR green 72 hour assay, asynchronized parasites, 96-well or 1536-well format, ATQ-R4
Description: as §1, §2, §3

[5] = SYBR green 72 hour assay, asynchronized parasites, 96-well or 1536-well format, 3D7 parent, read-out: 3D7 (PARENT) EC50 (µM) Average EC50
[6] = SYBR green 72 hour assay, synchronized parasites, 384-well format, 3D7 parent, read-out: 3D7 (PARENT) Average EC50
[7] = hypoxanthine 48-hour assay, synchronized parasites, 96-well format, strain 3D7 (parent), read-out: 3D7 (PARENT) Average EC50
[8] = hypoxanthine 48-hour assay, synchronized parasites, 96-well format, strain 3D7-C9-WT (parent of PfATP4 Mut3), read-out: 3D7-C9-WT (PARENT) Average EC50
[9] = SYBR green 72 hour assay, synchronized parasites, 384-well format, strain 3D7 (parent), read-out: 3D7 (PARENT) Average EC50

CN(C)CCCNCc1ccc(-c2ccc(Cl)c(Cl)c2)o1 [MMV673964]
EC50 [1]: 1.33 µM
EC50 [2, 5]: 0.068 µM
EC50 [2, 6]: 0.29 µM
EC50 [2, 7]: 0.633 µM
EC50 [2, 8]: 0.575 µM
EC50 ([3]; DD2, CYTb:G131S strain): 363 nM
EC50 [4]: 0.163 µM

COc1ccc2c3c([nH]c2c1)[C@H](CO)N(C(C)=O)CC31CCN(C(=O)Nc2ccccc2F)CC1 [MMV673482]
EC50 [2, 5]: 0.039 µM
EC50 [2, 6]: 0.127 µM
EC50 [2, 7]: 0.232 µM
EC50 [2, 8]: 0.234 µM
EC50 ([3]; DD2, CYTb:G131S strain): 182 nM
EC50 [4]: 0.027 µM

CCCCCCCN(Cc1ccc(OC(C)(C)C(=O)OCC)cc1)C(=O)Nc1ccc(Cl)cc1OCC [MMV021735]
EC50 [1]: 1.08 µM
EC50 [2, 5]: 0.054 µM
EC50 [2, 9]: 0.383 µM
EC50 [2, 7]: 0.459 µM
EC50 [2, 8]: 0.543 µM
EC50 ([3]; strain CYTb:G131S (Dd2 parent)): 498 nM
EC50 [4]: 0.056 µM

FC(F)(F)c1cccc(Nc2nc3ccccc3nc2Nc2cccc(C(F)(F)F)c2)c1 [MMV665794]
EC50 [1]: 0.135 µM
EC50 [2, 5]: 0.318 µM
EC50 [2, 9]: 0.164 µM
EC50 [2, 7]: 0.103 µM
EC50 ([3]; strain CYTb:G131S (Dd2 parent)): 172 nM
EC50 [4]: 0.434 µM

Cc1c(C)n(Cc2ccc(F)cc2)c2ccc(C(=O)NCc3ccco3)cc12 [MMV008149]
EC50 [1]: 0.798 µM
EC50 [2, 5]: 1.06 µM
EC50 [2, 9]: 0.357 µM
EC50 [2, 7]: 0.773 µM
EC50 [2, 8]: 2.74 µM
EC50 ([3]; strain CYTb:G131S (Dd2 parent)): > 5000 nM
fold change in EC50, CYTb-G131S vs parent ([3]; resistance, parent Dd2): > 38 fold
EC50 [4]: 3.88 µM
EC50 fold-shift, ATQ-R4 vs parent ([4]; resistance, parent 3D7): Statistically significant resistance

COc1ccc(C(=O)C2CC2c2ccc(Cl)cc2)cc1 (stereo not drawn) [MMV665924]
EC50 [1]: 1.17 µM
EC50 [2, 5]: 2.46 µM
EC50 [2, 9]: 0.976 µM
EC50 [2, 7]: 0.824 µM
EC50 [2, 8]: 0.487 µM
EC50 ([3]; strain CYTb:G131S (Dd2 parent)): 1910 nM
EC50 [4]: 3.41 µM

OC(CNC1CCCCC1)Cn1c2ccccc2c2ccccc21 (stereo not drawn) [MMV009063]
EC50 [1]: 0.095 µM
EC50 [2, 5]: 0.281 µM
EC50 [2, 9]: 0.464 µM
EC50 [2, 7]: 0.785 µM
EC50 ([3]; strain CYTb:G131S (Dd2 parent)): 412 nM
EC50 [4]: 0.668 µM

COc1cc2cc(C(=O)Nc3ccccc3)c(N)nc2cc1OC [MMV006767]
EC50 [1]: 0.379 µM
EC50 [2, 5]: 1.51 µM
EC50 [2, 9]: 0.762 µM
EC50 [2, 7]: 0.957 µM
EC50 [2, 8]: 0.74 µM
EC50 ([3]; strain CYTb:G131S (Dd2 parent)): 1800 nM
EC50 [4]: 2.73 µM

CN(C)S(=O)(=O)c1cc(-c2ccc3nccc(-c4cccc(S(N)(=O)=O)c4)c3c2)cnc1N [MMV024038]
EC50 [1]: 0.861 µM
EC50 [2, 5]: 0.764 µM
EC50 [2, 9]: 0.217 µM
EC50 [2, 7]: 0.174 µM
EC50 [2, 8]: 0.258 µM
EC50 ([3]; strain CYTb:G131S (Dd2 parent)): 249 nM
EC50 [4]: 1.16 µM

COCCNCC(O)Cn1c2ccc(Cl)cc2c2cc(Cl)ccc21 (stereo not drawn) [MMV019017]
EC50 [1]: 0.336 µM
EC50 [2, 5]: 0.537 µM
EC50 [2, 9]: 0.763 µM
EC50 [2, 7]: 0.62 µM
EC50 ([3]; strain CYTb:G131S (Dd2 parent)): 929 nM
EC50 [4]: 1.24 µM

CCC(C)NCC(O)(c1ccc(Cl)cc1)c1ccc(Cl)cc1 (stereo not drawn) [MMV665928]
EC50 [1]: 0.682 µM
EC50 [2, 5]: 0.028 µM
EC50 [2, 9]: 0.972 µM
EC50 [2, 7]: 0.494 µM
EC50 [2, 8]: 1.16 µM
EC50 ([3]; strain CYTb:G131S (Dd2 parent)): 669 nM
EC50 [4]: 0.09 µM

COc1ccc(NC(=O)N2CCCCN3[C@H](CN)[C@H](c4ccc(C#Cc5ccccc5)cc4)[C@@H]3C2)cc1 [BRD1095]
EC50 [1]: 0.00166 µM
EC50 [2, 5]: 0.00215 µM
EC50 [2, 6]: 0.022 µM
EC50 ([3]; DD2, CYTb:G131S strain): 24 nM
EC50 [4]: 0.003 µM

O=C(Nc1ccc(Cl)c(Cl)c1)Nc1ccc(Cl)c(Cl)c1 [MMV665852]
EC50 [1]: 0.75 µM
EC50 [2, 5]: 1.55 µM
EC50 [2, 9]: 1.16 µM
EC50 [2, 7]: 1.24 µM
EC50 ([3]; strain CYTb:G131S (Dd2 parent)): 1120 nM
EC50 [4]: 2.89 µM

Brc1ccc(Nc2nc3ccccc3nc2Nc2ccc(Br)cc2)cc1 [MMV007224]
EC50 [1]: 0.712 µM
EC50 [2, 5]: 0.709 µM
EC50 [2, 9]: 0.367 µM
EC50 [2, 7]: 0.284 µM
EC50 [2, 8]: 0.398 µM
EC50 ([3]; strain CYTb:G131S (Dd2 parent)): 285 nM
EC50 [4]: 0.766 µM
